The test system of assay [1] is U2OS cell line stabling expressing RFP-eGFP-hLC3b. In words: Tandem reporter assay (autophagic flux, RFP-only puncta). The class given is cell-based. As to conditions: Homo sapiens, RFP-only puncta as percentage of DMSO-treated control, 24 hours; for activity at 1 µM: read-out: Autolysosome % DMSO activity (compound concentration of 1 μM); for activity at 10 µM: read-out: Autolysosome % DMSO activity (compound concentration of 10 μM). The protocol: Selected compounds of this invention were also assessed for their ability to stimulate autophagy using a U20S cell line stabling expressing RFP-eGFP-hLC3b (a tandem reporter cell line). During the process of autophagy, the cargo to be degraded is first enveloped by organelles called autophagosomes. These autophagosomes then fuse with lysosomes, causing them to become acidified and their digestive enzymes to become activated. The term “autophagic flux” is used to represent the dynamic process of autophagy: autophagic flux refers to the whole process of autophagy, including autophagosome formation, maturation, fusion with lysosomes, subsequent breakdown and the release of macromolecules back into the cytosol (Zhang X J, Chen S, Huang K X, Le W D. Why should autophagic flux be assessed? Acta Pharmacol Sin. 2013 May; 34(5): 595-9. doi: 10.1038/aps.2012.184. Epub 2013 Mar. 11). Compounds that stimulate autophagic flux stimulate the dynamic process of autophagy (the whole process of autophagy).
LC3b is a protein found in the membrane of autophagosomes which has been used to generate genetic reporters of autophagy in cells. In these systems a tandem fusion of LC3b is engineered with two fluorescent proteins of different wavelengths: one which is acid sensitive (for example eGFP, which fluoresces green) and the other which is acid insensitive (for example RFP, which fluoresces red). Cells expressing RFP-eGFP-hLC3b can be examined using fluorescent microscopy: the autophagosomes present will fluoresce in both channels (either yellow in an overlay of both channels or puncta that are present in both the individual red and green channels) but the autolysosomes present will fluoresce in the RFP (red) channel only. Using a fluorescent microscope, the number of autophagosomes and autolysosomes can be counted, allowing for the monitoring of both the induction of autophagy (total puncta count) and the rate of autophagic flux (ratio of red-only to red-and-green puncta). The influence of small molecules on autophagy induction and flux can be assessed using this system by comparison to a non-treated control.
Representative Procedure: Human osteosarcoma U2OS cells stably expressing RFP-eGFP-hLC3b were seeded (10,000 cells/well) into a 96-well glass-bottom plate (Cell Carrier Ultra, Perkin Elmer) in DMEM Glutamax media (Gibco) supplemented with 10% Fetal Bovine Serum (FBS) and antibiotics (100 u/ml penicillin, 100 μg/ml streptomycin, Invitrogen), then incubated overnight in a humified atmosphere at 37° C. and 5% CO2. The cells were then treated with the compounds of interest, dissolved in DMSO, in a duplicated 5- or 10-point dose-response. 8 wells were treated with an equivalent volume of DMSO, 4 with 0.3 μM torin-1 as a positive control (MCE) and 4 wells with 0.4 μM torin-1 plus 0.2 μM bafilomycin (MCE) as a control for flux inhibition. The cells were returned to the incubator and the treatment continued for 24 hours. After treatment, the media was aspirated off and the cells fixed with a solution of 4% formaldehyde+1% glutaraldehyde (Sigma) in dPBS (plus magnesium and calcium, Gibco).
Fixation was allowed to proceed for 15 minutes at room temperature then the fixative solution discarded and replaced with PBS (Gibco) plus Hoescht 33342 ([…], Sigma). After 30 minutes the plates were imaged on an Opera Phenix confocal microscope (Perkin-Elmer) using a 40× water objective, collecting using DAPI, mCherry and GFP channels. Cells were detected based upon the staining of their nuclei with DAPI using the Harmony image analysis software (Perkin-Elmer) and the number of autophagosomes (GFP and RFP puncta) and autolysosomes (RFP only puncta) per cell were counted using the spot picking function within the software.
A general note: A reporter such as luciferase makes a cellular process visible.

Assay [2] concerns Human osteosarcoma U20S cells. In words: Assay to measure lysosome and autolysosome formation (acidic vesicle formation, LysoView/LysoTracker staining). The class given is cell-based. As to conditions: Homo sapiens, U2OS cells, concentration of 0.8 μM. The essentials: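 U2OS cells treated with compounds in DMSO for 24 h, then stained 45 min at 37 °C with 1× LysoView 633 or 50 nM LysoTracker Deep Red, with Hoechst nuclear counterstain. Live-cell fluorescence imaging at 37 °C; acidic vesicle formation judged against DMSO-treated control.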

Where [3] appears, read: read-out: Activity (percentage increase in acidic vesicle formation over the DMSO-treated control), Table 2.

Read-outs that look alike come from different tables or passages of the source.

Take `CCN(C(=O)c1csc(-c2cnn(-c3ccccc3)n2)n1)[C@@H]1CCNC1` [Compound 365, N-ethyl-2-(2-phenyl-2H-1,2,3-triazol-4-yl)-N-[(3R)-pyrrolidin-3-yl]-1,3-thiazole-4-carboxamide]: the activity at 1 µM in assay [1] was 183%.
Regarding `CC(C)N(C(=O)c1csc(-c2cnn(-c3ccccc3)c2)n1)C1CCNCC1F` (centres unmarked) [Compound 383, N-(3-fluoropiperidin-4-yl)-2-(1-phenyl-1H-pyrazol-4-yl)-N-(propan-2-yl)-1,3-thiazole-4-carboxamide], in assay [1], the activity at 1 µM stood at 98% and the activity at 10 µM came to 194%.
Taken in the same sequence, the figures for `O=C(c1coc(-c2cnn(-c3ccccc3OC(F)(F)F)c2)n1)N1C[C@H]2C[C@@H]1CN2` [Compound 378, (1R,4R)-2-(2-{1-[2-(trifluoromethoxy)phenyl]-1H-pyrazol-4-yl}-1,3-oxazole-4-carbonyl)-2,5-diazabicyclo[2.2.1]heptane] were 122% and 199%.
For `CN(C(=O)c1coc(-c2cnn(-c3ccccc3)c2)n1)[C@H]1CCNC1` [Compound 360, N-methyl-2-(1-phenyl-1H-pyrazol-4-yl)-N-[(3S)-pyrrolidin-3-yl]-1,3-oxazole-4-carboxamide] the same measures were 113% and 214%.
For `COc1ccccc1-n1cc(-c2nc(C(=O)N(C(C)C)[C@H]3CCNC3)cs2)cn1` [Compound 398, 2-[1-(2-methoxyphenyl)-1H-pyrazol-4-yl]-N-(propan-2-yl)-N-[(3S)-pyrrolidin-3-yl]-1,3-thiazole-4-carboxamide] the same measures were 116% and 190%.
As to `Cc1ccccc1-n1cc(-c2nc(C(=O)N(C(C)C)[C@H]3CCNC3)cs2)cn1` [Compound 397, 2-[1-(2-methylphenyl)-1H-pyrazol-4-yl]-N-(propan-2-yl)-N-[(3S)-pyrrolidin-3-yl]-1,3-thiazole-4-carboxamide], in assay [1], the activity at 1 µM amounted to 115% and the activity at 10 µM turned out to be 191%.
Taken in the same sequence, the figures for `CN(C(=O)c1nc(-c2cnn(-c3ccccc3)c2)c[nH]1)[C@H]1CCNC1` [Compound 359, N-methyl-5-(1-phenyl-1H-pyrazol-4-yl)-N-[(3S)-pyrrolidin-3-yl]-1H-imidazole-2-carboxamide] were 113% and 144%.
In the case of `CN(C(=O)c1csc(-c2cnn(-c3ccccc3)n2)n1)[C@@H]1CCNC1` [Compound 363, N-methyl-2-(2-phenyl-2H-1,2,3-triazol-4-yl)-N-[(3R)-pyrrolidin-3-yl]-1,3-thiazole-4-carboxamide], the activity at 1 µM in assay [1] came out at 171%.
As for `CN(C(=O)c1cnc(-c2cnn(-c3ccccc3)c2)[nH]1)[C@H]1CCNC1` [Compound 358, N-methyl-2-(1-phenyl-1H-pyrazol-4-yl)-N-[(3S)-pyrrolidin-3-yl]-1H-imidazole-4-carboxamide], in assay [1], the activity at 1 µM was determined as 102% and the activity at 10 µM amounted to 103%.
Taken in the same sequence, the figures for `CC(C)N(C(=O)c1csc(-c2cnn(-c3ccccc3)c2)n1)C1CCNCC1(F)F` (centres unmarked) [Compound 382, N-(3,3-difluoropiperidin-4-yl)-2-(1-phenyl-1H-pyrazol-4-yl)-N-(propan-2-yl)-1,3-thiazole-4-carboxamide] were 96% and 108%.
For `CCN(C(=O)c1csc(-c2cnn(-c3ccccn3)c2)n1)[C@H]1CCNC1` [Compound 367, N-ethyl-2-[1-(pyridin-2-yl)-1H-pyrazol-4-yl]-N-[(3S)-pyrrolidin-3-yl]-1,3-thiazole-4-carboxamide] the same measures were 114% and 215%.
Turning to `CC(C)N(C(=O)c1csc(-c2cnn(C)c2)n1)C1CCNCC1` [Compound 392, 2-(1-methyl-1H-pyrazol-4-yl)-N-(piperidin-4-yl)-N-(propan-2-yl)-1,3-thiazole-4-carboxamide], in assay [1], the activity at 1 µM is 97% and the activity at 10 µM came out at 109%.
Regarding `NCCCNC(=O)c1csc(-c2cnn(-c3ccccc3)c2)n1` [Compound 159, N-(3-aminopropyl)-2-(1-phenyl-1H-pyrazol-4-yl)-1,3-thiazole-4-carboxamide], the activation at 0.8 µM in assay [2] (setting [3]) lay within 30 to 50%.
As to `CCCN(C(=O)c1ccc(-c2cnn(-c3ccccc3)c2)[nH]1)C1CCNC1` (centres unmarked) [Compound 120, 5-(1-phenyl-1H-pyrazol-4-yl)-N-propyl-N-(pyrrolidin-3-yl)-1H-pyrrole-2-carboxamide], the activation at 0.8 µM in assay [2] (setting [3]) fell in the range of 50 to 100%; in assay [2] (read-out: Activity (percentage increase in acidic vesicle formation), Table 2a Preferred compounds), 50 to 100%.
In the case of `CCCN(C(=O)c1csc(-c2cnn(-c3ccccc3Cl)c2)n1)[C@@H]1CCNC1` [Compound 90, 2-[1-(2-chlorophenyl)-1H-pyrazol-4-yl]-N-propyl-N-[(3R)-pyrrolidin-3-yl]-1,3-thiazole-4-carboxamide], the activation at 0.8 µM in assay [2] (setting [3]) lay within 10 to 30%.
Same read-out and setting: in the case of `CCCN(C(=O)c1csc(-c2cnn(-c3ccccc3C)c2)n1)[C@H]1CCNC1` [Compound 87, 2-[1-(2-methylphenyl)-1H-pyrazol-4-yl]-N-propyl-N-[(3S)-pyrrolidin-3-yl]-1,3-thiazole-4-carboxamide] it was 10 to 30%.
Still for that read-out and setting: in the case of `CCCN(C(=O)c1csc(-c2cnn(-c3ccccc3)c2)c1)[C@H]1CCNC1` [Compound 42, 5-(1-phenyl-1H-pyrazol-4-yl)-N-propyl-N-[(3S)-pyrrolidin-3-yl]thiophene-3-carboxamide] it was 10 to 30%.
The same measure, in the same setting: as for `O=C(NCC1CCNC1)c1csc(-c2cnn(-c3ccccc3)c2)n1` (centres unmarked) [Compound 179, 2-(1-phenyl-1H-pyrazol-4-yl)-N-[(pyrrolidin-3-yl)methyl]-1,3-thiazole-4-carboxamide], the figure is 30 to 50%; as for `NC1CCCN(C(=O)c2csc(-c3cnn(-c4ccccc4)c3)n2)C1` (centres unmarked) [Compound 167, 1-[2-(1-phenyl-1H-pyrazol-4-yl)-1,3-thiazole-4-carbonyl]piperidin-3-amine], 10 to 30%; as for `CCCN(C(=O)c1csc(-c2cnn(-c3ccc(F)cc3)c2)n1)[C@H]1CCNC1` [Compound 58, 2-[1-(4-fluorophenyl)-1H-pyrazol-4-yl]-N-propyl-N-[(3S)-pyrrolidin-3-yl]-1,3-thiazole-4-carboxamide], 10 to 30%.
Consider `CC(C)N(C(=O)c1ccc(-c2cnn(-c3ccccc3)c2)[nH]1)C1CCNCC1` [Compound 5, 5-(1-phenyl-1H-pyrazol-4-yl)-N-(piperidin-4-yl)-N-(propan-2-yl)-1H-pyrrole-2-carboxamide], for which the activation at 0.8 µM in assay [2] (setting [3]) lay within 30 to 50%.
On the same count and under the same terms, in the case of `CC(C)N(C(=O)c1csc(-c2cnn(-c3ccccc3C(F)(F)F)c2)n1)C1CCNCC1` [Compound 47, N-(piperidin-4-yl)-N-(propan-2-yl)-2-{1-[2-(trifluoromethyl)phenyl]-1H-pyrazol-4-yl}-1,3-thiazole-4-carboxamide] it was 30 to 50%; in that of `CCCN(C(=O)c1csc(-c2cnn(-c3ccccc3Cl)c2)n1)[C@H]1CCNC1` [Compound 89, 2-[1-(2-chlorophenyl)-1H-pyrazol-4-yl]-N-propyl-N-[(3S)-pyrrolidin-3-yl]-1,3-thiazole-4-carboxamide], 10 to 30%; in that of `NC[C@H]1CCCN1C(=O)c1ccc(-c2cnn(-c3ccccc3)c2)o1` [Compound 11, 1-[(2R)-1-[5-(1-phenyl-1H-pyrazol-4-yl)furan-2-carbonyl]pyrrolidin-2-yl]methanamine], 10 to 30%.

The record behind these values is patent US20250049776A1, “AUTOPHAGY INDUCING COMPOUNDS AND USES THEREOF, IN PARTICULAR FOR A SYSTEMIC TREATMENT OF DISEASES AND CONDITIONS” (Samsara Therapeutics Inc., priority 2021, published 2025).
